# Patent publication US20200093795A1 (Secura Bio, Inc., priority 2015, published 2020)
# Key:
# [1] = system: cardiac ventricular repolarization (QT interval); experiment: Pooled clinical data from over 500 patients treated with single agent panobinostat: QTc prolongation; assay type: in vivo, human
# Source text: Panobinostat may prolong cardiac ventricular repolarization (QT interval).
# [2] = system: patients with relapsed multiple myeloma; experiment: Randomized, double-blind, placebo-controlled, multicenter study (PANORAMA-1) of panobinostat plus bortezomib and dexamethasone; assay type: in vivo
# Protocol: Treatment was administered for a maximum of 16 cycles (48 weeks).
# Demographics and baseline disease characteristics were balanced between arms. The median age was 63 years (range 28 to 84); 42% of patients were older than 65 years; 53% of patients were male. The ECOG (Eastern Cooperative Oncology Group) performance status was 0 to 1 in 93% of patients. The median number of prior therapies was 1; 48% of patients received 2 or 3 prior lines of therapy. More than half (57%) of the patients had prior stem cell transplantation. The most common prior antineoplastic therapies were corticosteroids (90%), melphalan (80%), thalidomide (53%), cyclophosphamide (47%), bortezomib (44%), and lenalidomide (19%). The median duration of follow-up was 29 months in both arms.
# The primary endpoint was progression-free survival (PFS), using modified European Bone Marrow Transplant Group (EBMT) criteria, as assessed by the investigators. […] The efficacy and safety in a subgroup analysis of 193 patients who had received prior treatment with both bortezomib and an immunomodulatory agent and a median of 2 prior therapies as the benefit: risk appeared to be greater in this more heavily pretreated population than in the overall trial population. Of these 193 patients, 76% of them had received ≥2 prior lines of therapy.
compound,measurement,setting,value
Cc1[nH]c2ccccc2c1CCNCc1ccc(/C=C/C(=O)NO)cc1 [panobinostat],incidence of CTC Grade 3 QTc prolongation (QTcF >500 msec),[1]; at a dose of 60 mg or higher,≥ 5%
same,incidence of CTC Grade 3 QTc prolongation (QTcF >500 msec),"[1]; multiple indications, different dose levels, overall",approximately 1%
same,serious toxicities observed,"[2]; PANORAMA clinical study, patients receiving panobinostat","severe and fatal ischemic events, severe arrhythmias and ECG changes"
same,gastrointestinal toxicity,[2]; in vivo,common
